For 37 compounds, melting point results are on record in patent publication US7947706B2, “Substituted pyrrolopyridines, compositions containing them, manufacturing process therefor and use thereof” (Sanofi-Aventis Deutschland GmbH, priority 2005, dated 2011).

Consider `NC(=O)c1[nH]c2cnccc2c1-c1ccc(NC(=O)Nc2cccc(Cl)c2)cc1.O=C(O)C(F)(F)F`, for which the melting point was determined as 221 °C.

`NC(=O)c1[nH]c2cnccc2c1-c1ccc(NC(=O)Nc2ccc(F)c(Cl)c2)cc1.O=C(O)C(F)(F)F` had a melting point of 214 °C.

Take `NC(=O)c1[nH]c2c(ccc[n+]2[O-])c1-c1ccc(NC(=O)Nc2cc(C(F)(F)F)ccc2F)cc1` [Example 8, 3-{4-[3-(2-Fluoro-5-trifluoromethylphenyl)ureido]phenyl}-7-oxy-1H-pyrrolo[2,3-b]pyridine-2-carboxamide]: the melting point came to 220 °C.

Compound `NC(=O)c1[nH]c2ncccc2c1-c1ccc(NC(=O)Nc2ccccc2F)cc1` [Example 9, 3-{4-[3-(2-Fluorophenyl)ureido]phenyl}-1H-pyrrolo[2,3-b]-pyridine-2-carboxamide] returned a melting point of 268.7 °C.

Take `COc1ccccc1NC(=O)Nc1ccc(-c2c(C(N)=O)[nH]c3ncccc23)cc1` [Example 10, 3-{4-[3-(2-Methoxyphenyl)ureido]phenyl}-1H-pyrrolo[2,3-b]-pyridine-2-carboxamide]: the melting point came out at 227.1 °C.

With `NC(=O)c1[nH]c2ncccc2c1-c1ccc(NC(=O)Nc2ccc(C(F)(F)F)cc2)cc1` [Example 11, 3-{4-[3-(4-Trifluoromethylphenyl)ureido]phenyl}-1H-pyrrolo-[2,3-b]pyridine-2-carboxamide], the melting point turned out to be 296.2 °C.

`NC(=O)c1[nH]c2ncccc2c1-c1ccc(NC(=O)Nc2cc(C(F)(F)F)ccc2Cl)cc1` [Example 12, 3-{4-[3-(2-Chloro-5-trifluoromethylphenyl)ureido]phenyl}-1H-pyrrolo[2,3-b]pyridine-2-carboxamide]: the melting point stood at 188.3 °C.

Turning to `NC(=O)c1[nH]c2ncccc2c1-c1ccc(NC(=O)Nc2cccc(C(F)(F)F)c2F)cc1` [Example 13, 3-{4-[3-(2-Fluoro-3-trifluoromethylphenyl)ureido]phenyl}-1H-pyrrolo[2,3-b]pyridine-2-carboxamide], the melting point was found to be 265.4 °C.

`NC(=O)c1[nH]c2ncccc2c1-c1ccc(NC(=O)Nc2ccc(F)c(C(F)(F)F)c2)cc1` [Example 14, 3-{4-[3-(4-Fluoro-3-trifluoromethylphenyl)ureido]phenyl}-1H-pyrrolo[2,3-b]pyridine-2-carboxamide] gave a melting point of 234.7 °C.

The compound `NC(=O)c1[nH]c2ncccc2c1-c1ccc(NC(=O)Nc2cc(F)cc(C(F)(F)F)c2)cc1` [Example 15, 3-{4-[3-(3-Fluoro-5-trifluoromethylphenyl)ureido]phenyl}-1H-pyrrolo[2,3-b]pyridine-2-carboxamide] came in with a melting point of 257.5 °C.

`NC(=O)c1[nH]c2ncccc2c1-c1ccc(NC(=O)Nc2ccc(OC(F)(F)F)cc2)cc1` [Example 16, 3-{4-[3-(4-Trifluoromethoxyphenyl)ureido]phenyl}-1H-pyrrolo[2,3-b]pyridine-2-carboxamide] gave a melting point of 258.9 °C.

Consider `COc1ccc(NC(=O)Nc2ccc(-c3c(C(N)=O)[nH]c4ncccc34)cc2)cc1OC` [Example 17, 3-{4-[3-(3,4-Dimethoxyphenyl)ureido]phenyl}-1H-pyrrolo-[2,3-b]pyridine-2-carboxamide], for which the melting point amounted to 223.7 °C.

The compound `Cc1ccc(C)c(NC(=O)Nc2ccc(-c3c(C(N)=O)[nH]c4ncccc34)cc2)c1` [Example 18, 3-{4-[3-(2,5-Dimethylphenyl)ureido]phenyl}-1H-pyrrolo[2,3-b]pyridine-2-carboxamide] had a melting point of 308.8 °C.

With `COc1cccc(NC(=O)Nc2ccc(-c3c(C(N)=O)[nH]c4ncccc34)cc2)c1` [Example 19, 3-{4-[3-(3-Methoxyphenyl)ureido]phenyl}-1H-pyrrolo[2,3-b]-pyridine-2-carboxamide], the melting point is 306.2 °C.

As for `NC(=O)c1[nH]c2ncccc2c1-c1ccc(NC(=O)Nc2cccc(C(F)(F)F)c2)cc1` [Example 20, 3-{4-[3-(3-Trifluoromethylphenyl)ureido]phenyl}-1H-pyrrolo-[2,3-b]pyridine-2-carboxamide], the melting point was 263.6 °C.

In turn, `Cc1ccc(NC(=O)Nc2ccc(-c3c(C(N)=O)[nH]c4ncccc34)cc2)cc1C` [Example 21, 3-{4-[3-(3,4-Dimethylphenyl)ureido]phenyl}-1H-pyrrolo[2,3-b]pyridine-2-carboxamide] gave a melting point of 274.7 °C.

`COc1ccc(C)cc1NC(=O)Nc1ccc(-c2c(C(N)=O)[nH]c3ncccc23)cc1` [Example 22, 3-{4-[3-(2-Methoxy-5-methylphenyl)ureido]phenyl}-1H-pyrrolo[2,3-b]pyridine-2-carboxamide] gave a melting point of 327.7 °C.

As for `Cc1cccc(NC(=O)Nc2ccc(-c3c(C(N)=O)[nH]c4ncccc34)cc2)c1` [Example 23, 3-[4-(3-m-Tolylureido)phenyl]-1H-pyrrolo[2,3-b]pyridine-2-carboxamide], the melting point came to 266 °C.

Compound `NC(=O)c1[nH]c2ncccc2c1-c1ccc(NC(=O)Nc2ccc(F)cc2)cc1` [Example 24, 3-{4-[3-(4-Fluorophenyl)ureido]phenyl}-1H-pyrrolo[2,3-b]-pyridine-2-carboxamide] yielded a melting point of 299.9 °C.

In turn, `Cc1ccc(NC(=O)Nc2ccc(-c3c(C(N)=O)[nH]c4ncccc34)cc2)cc1` [Example 25, 3-[4-(3-p-Tolylureido)phenyl]-1H-pyrrolo[2,3-b]pyridine-2-carboxamide] displayed a melting point of 293 °C.

Regarding `Cc1ccc(NC(=O)Nc2ccc(-c3c(C(N)=O)[nH]c4ncccc34)cc2)cc1C(F)(F)F` [Example 26, 3-{4-[3-(4-Methyl-3-trifluoromethylphenyl)ureido]phenyl}-1H-pyrrolo[2,3-b]pyridine-2-carboxamide], the melting point turned out to be 285 °C.

As for `NC(=O)c1[nH]c2ncccc2c1-c1ccc(NC(=O)Nc2ccc(OC(F)F)cc2)cc1` [Example 27, 3-{4-[3-(4-Difluoromethoxyphenyl)ureido]phenyl}-1H-pyrrolo[2,3-b]pyridine-2-carboxamide], the melting point is 283.5 °C.

Take `COc1cc(NC(=O)Nc2ccc(-c3c(C(N)=O)[nH]c4ncccc34)cc2)cc(OC)c1` [Example 28, 3-{4-[3-(3,5-Dimethoxyphenyl)ureido]phenyl}-1H-pyrrolo-[2,3-b]pyridine-2-carboxamide]: the melting point turned out to be 266.5 °C.

As to `NC(=O)c1[nH]c2ncccc2c1-c1ccc(NC(=O)Nc2ccc(Cl)c(C(F)(F)F)c2)cc1` [Example 29, 3-{4-[3-(4-Chloro-3-trifluoromethylphenyl)ureido]phenyl}-1H-pyrrolo[2,3-b]pyridine-2-carboxamide], the melting point is 311.1 °C.

On to `COc1ccc(C(F)(F)F)cc1NC(=O)Nc1ccc(-c2c(C(N)=O)[nH]c3ncccc23)cc1` [Example 32, 3-{4-[3-(2-Methoxy-5-trifluoromethylphenyl)ureido]phenyl}-1H-pyrrolo[2,3-b]pyridine-2-carboxamide], for which the melting point is 221 °C.

In turn, `COc1ccccc1NC(=O)Nc1ccc(-c2c(C(N)=O)[nH]c3cnccc23)cc1` [Example 34, 3-{4-[3-(2-Methoxyphenyl)ureido]phenyl}-1H-pyrrolo[2,3-c]pyridine-2-carboxamide] came in with a melting point of 216 °C.

`NC(=O)c1[nH]c2cnccc2c1-c1ccc(NC(=O)Nc2ccccc2C(F)(F)F)cc1` [Example 35, 3-{4-[3-(2-Trifluoromethylphenyl)ureido]phenyl}-1H-pyrrolo[2,3-c]pyridine-2-carboxamide]: the melting point worked out at 228 °C.

On to `NC(=O)c1[nH]c2cnccc2c1-c1ccc(NC(=O)Nc2cccc(C(F)(F)F)c2)cc1` [Example 36, 3-{4-[3-(3-Trifluoromethylphenyl)ureido]phenyl}-1H-pyrrolo-[2,3-c]pyridine-2-carboxamide], for which the melting point stood at 256 °C.

As to `NC(=O)c1[nH]c2cnccc2c1-c1ccc(NC(=O)Nc2ccc(F)cc2)cc1` [Example 37, 3-{4-[3-(4-Fluorophenyl)ureido]phenyl}-1H-pyrrolo[2,3-c]-pyridine-2-carboxamide], the melting point was 271 °C.

Compound `NC(=O)c1[nH]c2cnccc2c1-c1ccc(NC(=O)Nc2ccc(C(F)(F)F)cc2)cc1` [Example 38, 3-{4-[3-(4-Trifluoromethylphenyl)ureido]phenyl}-1H-pyrrolo-[2,3-c]pyridine-2-carboxamide] registered a melting point of 289 °C.

As to `Cc1ccc(NC(=O)Nc2ccc(-c3c(C(N)=O)[nH]c4cnccc34)cc2)cc1` [Example 39, 3-[4-(3-p-Tolylureido)phenyl]-1H-pyrrolo[2,3-c]pyridine-2-carboxamide], the melting point stood at 277 °C.

With `NC(=O)c1[nH]c2cnccc2c1-c1ccc(NC(=O)Nc2ccc(Cl)c(C(F)(F)F)c2)cc1` [Example 40, 3-{4-[3-(4-Chloro-3-trifluoromethylphenyl)ureido]phenyl}-1H-pyrrolo[2,3-c]pyridine-2-carboxamide], the melting point amounted to 228 °C.

In the case of `NC(=O)c1[nH]c2cnccc2c1-c1ccc(NC(=O)Nc2cc(C(F)(F)F)ccc2Cl)cc1` [Example 41, 3-{4-[3-(2-Chloro-5-trifluoromethylphenyl)ureido]phenyl}-1H-pyrrolo[2,3-c]pyridine-2-carboxamide], the melting point came out at 243 °C.

Turning to `NC(=O)c1[nH]c2cnccc2c1-c1ccc(NC(=O)Nc2ccc(OC(F)(F)F)cc2)cc1` [Example 42, 3-{4-[3-(4-Trifluoromethoxyphenyl)ureido]phenyl}-1H-pyrrolo[2,3-c]pyridine-2-carboxamide], the melting point was determined as 276 °C.

`NC(=O)c1[nH]c2cnccc2c1-c1ccc(NC(=O)Nc2ccc(OC(F)F)cc2)cc1` [Example 43, 3-{4-[3-(4-Difluoromethoxyphenyl)ureido]phenyl}-1H-pyrrolo[2,3-c]pyridine-2-carboxamide] yielded a melting point of 257 °C.

`Cc1ccc(NC(=O)Nc2ccc(-c3c(C(N)=O)[nH]c4cnccc34)cc2)cc1C` [Example 44, 3-{4-[3-(3,4-Dimethylphenyl)ureido]phenyl}-1H-pyrrolo[2,3-c]pyridine-2-carboxamide] returned a melting point of 230 °C.

For the compound `COc1cc(NC(=O)Nc2ccc(-c3c(C(N)=O)[nH]c4cnccc34)cc2)cc(OC)c1` [Example 45, 3-{4-[3-(3,5-Dimethoxyphenyl)ureido]phenyl}-1H-pyrrolo-[2,3-c]pyridine-2-carboxamide], the melting point is 225 °C.
